The source made the active and inactive calls.
Experiments:
ADP/ATP translocase 2 = molecular target: T1, ADP/ATP translocase 2 (Homo sapiens, UniProt P05141)
T1 sequence (P05141 whole entry): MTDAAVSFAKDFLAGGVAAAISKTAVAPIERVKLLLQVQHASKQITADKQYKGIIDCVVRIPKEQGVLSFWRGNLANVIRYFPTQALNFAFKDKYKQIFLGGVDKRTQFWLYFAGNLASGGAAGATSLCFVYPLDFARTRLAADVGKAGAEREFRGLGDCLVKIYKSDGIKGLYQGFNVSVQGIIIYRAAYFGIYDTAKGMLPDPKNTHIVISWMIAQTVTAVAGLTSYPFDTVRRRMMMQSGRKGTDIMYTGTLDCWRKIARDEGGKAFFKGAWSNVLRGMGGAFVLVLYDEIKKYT

[1] = molecular target: T2, Tyrosine--tRNA ligase, cytoplasmic (Homo sapiens, UniProt P54577)
T2 sequence (P54577 whole entry): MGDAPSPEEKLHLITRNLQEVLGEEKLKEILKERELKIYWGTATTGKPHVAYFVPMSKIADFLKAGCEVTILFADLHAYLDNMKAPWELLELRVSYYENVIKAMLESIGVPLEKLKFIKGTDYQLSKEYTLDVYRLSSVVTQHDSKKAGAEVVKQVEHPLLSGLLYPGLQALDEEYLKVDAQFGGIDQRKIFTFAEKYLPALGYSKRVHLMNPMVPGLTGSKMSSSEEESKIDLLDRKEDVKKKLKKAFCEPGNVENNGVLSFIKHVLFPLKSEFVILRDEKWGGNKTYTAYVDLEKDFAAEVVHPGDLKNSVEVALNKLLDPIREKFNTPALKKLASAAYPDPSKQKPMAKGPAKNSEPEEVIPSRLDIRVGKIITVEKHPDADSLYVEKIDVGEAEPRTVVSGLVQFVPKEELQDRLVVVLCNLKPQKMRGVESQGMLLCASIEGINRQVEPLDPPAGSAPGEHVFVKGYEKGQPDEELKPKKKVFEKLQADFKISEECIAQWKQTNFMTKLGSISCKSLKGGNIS

[2] = molecular target: T3, Cysteine--tRNA ligase, cytoplasmic (Homo sapiens, UniProt P49589)
T3 sequence (P49589 whole entry): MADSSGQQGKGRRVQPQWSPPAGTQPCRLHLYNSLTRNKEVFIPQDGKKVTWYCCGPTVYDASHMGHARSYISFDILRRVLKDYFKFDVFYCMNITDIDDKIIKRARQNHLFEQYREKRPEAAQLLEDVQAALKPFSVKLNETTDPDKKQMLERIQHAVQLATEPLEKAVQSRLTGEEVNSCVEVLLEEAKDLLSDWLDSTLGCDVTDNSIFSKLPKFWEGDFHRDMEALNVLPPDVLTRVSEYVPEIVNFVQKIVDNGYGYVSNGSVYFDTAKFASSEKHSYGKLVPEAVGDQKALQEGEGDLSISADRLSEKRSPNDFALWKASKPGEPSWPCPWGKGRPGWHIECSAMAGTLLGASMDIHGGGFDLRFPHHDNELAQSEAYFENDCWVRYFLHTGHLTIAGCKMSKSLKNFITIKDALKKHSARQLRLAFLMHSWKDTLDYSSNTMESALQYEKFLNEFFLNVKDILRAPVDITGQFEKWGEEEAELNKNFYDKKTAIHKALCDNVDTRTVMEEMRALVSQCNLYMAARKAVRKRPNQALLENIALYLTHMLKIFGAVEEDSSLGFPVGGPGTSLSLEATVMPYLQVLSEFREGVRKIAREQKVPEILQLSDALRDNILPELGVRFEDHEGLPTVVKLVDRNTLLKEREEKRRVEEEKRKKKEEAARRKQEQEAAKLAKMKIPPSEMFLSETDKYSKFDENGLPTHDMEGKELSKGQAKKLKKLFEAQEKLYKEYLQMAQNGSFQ

[3] = molecular target: U5 small nuclear ribonucleoprotein 200 kDa helicase (Homo sapiens, UniProt O75643)
Chain of U5 small nuclear ribonucleoprotein 200 kDa helicase (O75643 whole entry): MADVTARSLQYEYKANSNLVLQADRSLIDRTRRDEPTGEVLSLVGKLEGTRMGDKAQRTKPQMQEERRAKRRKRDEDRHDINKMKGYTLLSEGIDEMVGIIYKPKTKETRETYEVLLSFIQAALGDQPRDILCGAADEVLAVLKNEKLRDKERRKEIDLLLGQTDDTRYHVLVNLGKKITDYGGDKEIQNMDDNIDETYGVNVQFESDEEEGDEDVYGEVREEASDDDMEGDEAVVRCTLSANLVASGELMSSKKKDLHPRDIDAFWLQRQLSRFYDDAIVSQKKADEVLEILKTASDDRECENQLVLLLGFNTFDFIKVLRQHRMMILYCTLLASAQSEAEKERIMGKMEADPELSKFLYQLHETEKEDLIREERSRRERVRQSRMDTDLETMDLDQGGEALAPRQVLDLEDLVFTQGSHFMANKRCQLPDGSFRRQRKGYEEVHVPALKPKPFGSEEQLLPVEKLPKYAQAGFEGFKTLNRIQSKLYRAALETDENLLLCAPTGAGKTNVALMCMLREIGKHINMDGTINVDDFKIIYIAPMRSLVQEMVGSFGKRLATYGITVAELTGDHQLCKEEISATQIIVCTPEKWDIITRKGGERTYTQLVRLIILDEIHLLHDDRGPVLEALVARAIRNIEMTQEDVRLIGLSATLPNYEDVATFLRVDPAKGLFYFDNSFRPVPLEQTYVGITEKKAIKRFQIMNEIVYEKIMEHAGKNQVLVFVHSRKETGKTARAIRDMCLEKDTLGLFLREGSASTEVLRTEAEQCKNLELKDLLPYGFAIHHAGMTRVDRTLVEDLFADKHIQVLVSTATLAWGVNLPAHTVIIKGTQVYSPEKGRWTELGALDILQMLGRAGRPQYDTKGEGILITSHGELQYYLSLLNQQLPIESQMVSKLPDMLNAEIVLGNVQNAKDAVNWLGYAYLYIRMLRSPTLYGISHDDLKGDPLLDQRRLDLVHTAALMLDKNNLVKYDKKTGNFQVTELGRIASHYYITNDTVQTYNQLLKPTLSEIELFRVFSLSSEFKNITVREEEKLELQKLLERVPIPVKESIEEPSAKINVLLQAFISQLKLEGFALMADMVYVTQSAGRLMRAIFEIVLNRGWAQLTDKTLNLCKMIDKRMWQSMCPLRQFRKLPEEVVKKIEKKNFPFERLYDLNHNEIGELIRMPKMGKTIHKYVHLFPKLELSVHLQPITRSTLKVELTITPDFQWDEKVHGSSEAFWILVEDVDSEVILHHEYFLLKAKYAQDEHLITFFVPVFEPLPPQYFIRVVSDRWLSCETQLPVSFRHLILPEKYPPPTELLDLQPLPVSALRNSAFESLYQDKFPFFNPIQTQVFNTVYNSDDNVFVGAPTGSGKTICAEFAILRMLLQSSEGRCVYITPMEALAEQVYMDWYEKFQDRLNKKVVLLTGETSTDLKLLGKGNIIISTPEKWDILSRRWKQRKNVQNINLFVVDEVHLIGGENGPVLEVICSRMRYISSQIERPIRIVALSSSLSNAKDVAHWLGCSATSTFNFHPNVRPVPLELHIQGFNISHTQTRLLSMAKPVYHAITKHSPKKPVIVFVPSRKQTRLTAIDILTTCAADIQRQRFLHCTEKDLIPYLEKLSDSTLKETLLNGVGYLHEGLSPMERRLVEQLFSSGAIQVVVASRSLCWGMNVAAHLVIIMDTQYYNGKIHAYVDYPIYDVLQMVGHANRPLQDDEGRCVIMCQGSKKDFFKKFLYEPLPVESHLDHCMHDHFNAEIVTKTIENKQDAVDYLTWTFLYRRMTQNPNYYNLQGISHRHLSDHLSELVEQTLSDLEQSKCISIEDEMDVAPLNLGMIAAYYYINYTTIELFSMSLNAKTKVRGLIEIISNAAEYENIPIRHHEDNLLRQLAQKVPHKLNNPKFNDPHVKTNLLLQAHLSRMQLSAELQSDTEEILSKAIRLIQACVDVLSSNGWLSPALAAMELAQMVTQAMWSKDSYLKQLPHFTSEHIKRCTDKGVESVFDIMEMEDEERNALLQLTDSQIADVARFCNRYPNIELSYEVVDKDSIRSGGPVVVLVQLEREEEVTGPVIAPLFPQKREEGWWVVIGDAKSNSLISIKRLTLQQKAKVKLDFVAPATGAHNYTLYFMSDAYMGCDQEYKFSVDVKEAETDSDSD

Ephrin type-B receptor 2 = molecular target: T4, Ephrin type-B receptor 2 (Homo sapiens, UniProt P29323)
T4 sequence (P29323 whole entry): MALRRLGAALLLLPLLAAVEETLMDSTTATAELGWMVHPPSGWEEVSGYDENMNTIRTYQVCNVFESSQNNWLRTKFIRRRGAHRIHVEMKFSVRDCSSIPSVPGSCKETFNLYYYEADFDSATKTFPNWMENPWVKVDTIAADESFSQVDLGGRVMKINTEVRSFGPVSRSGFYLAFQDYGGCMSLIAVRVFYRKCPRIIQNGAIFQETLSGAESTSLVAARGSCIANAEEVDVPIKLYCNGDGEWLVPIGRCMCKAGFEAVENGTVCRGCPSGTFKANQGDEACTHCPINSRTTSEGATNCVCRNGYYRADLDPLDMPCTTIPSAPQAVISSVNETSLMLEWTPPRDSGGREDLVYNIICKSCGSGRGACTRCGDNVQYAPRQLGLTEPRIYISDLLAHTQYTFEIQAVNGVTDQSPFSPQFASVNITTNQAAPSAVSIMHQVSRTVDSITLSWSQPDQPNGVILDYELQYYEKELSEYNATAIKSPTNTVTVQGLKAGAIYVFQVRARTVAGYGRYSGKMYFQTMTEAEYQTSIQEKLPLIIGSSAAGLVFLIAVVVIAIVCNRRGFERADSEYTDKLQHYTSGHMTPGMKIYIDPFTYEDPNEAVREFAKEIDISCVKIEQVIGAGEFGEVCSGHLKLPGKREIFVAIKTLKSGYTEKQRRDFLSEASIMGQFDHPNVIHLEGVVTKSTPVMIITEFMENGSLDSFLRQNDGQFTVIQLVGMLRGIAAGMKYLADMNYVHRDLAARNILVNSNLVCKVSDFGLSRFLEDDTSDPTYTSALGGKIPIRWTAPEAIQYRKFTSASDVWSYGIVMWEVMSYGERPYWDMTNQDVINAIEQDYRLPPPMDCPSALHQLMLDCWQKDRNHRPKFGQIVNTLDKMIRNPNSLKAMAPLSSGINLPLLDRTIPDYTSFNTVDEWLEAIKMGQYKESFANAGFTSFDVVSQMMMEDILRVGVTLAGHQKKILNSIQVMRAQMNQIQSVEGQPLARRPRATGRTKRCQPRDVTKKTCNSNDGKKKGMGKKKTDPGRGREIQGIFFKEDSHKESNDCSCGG

[4] = molecular target: BMP-2-inducible protein kinase (Homo sapiens, UniProt Q9NSY1)
Chain of BMP-2-inducible protein kinase (Q9NSY1 whole entry): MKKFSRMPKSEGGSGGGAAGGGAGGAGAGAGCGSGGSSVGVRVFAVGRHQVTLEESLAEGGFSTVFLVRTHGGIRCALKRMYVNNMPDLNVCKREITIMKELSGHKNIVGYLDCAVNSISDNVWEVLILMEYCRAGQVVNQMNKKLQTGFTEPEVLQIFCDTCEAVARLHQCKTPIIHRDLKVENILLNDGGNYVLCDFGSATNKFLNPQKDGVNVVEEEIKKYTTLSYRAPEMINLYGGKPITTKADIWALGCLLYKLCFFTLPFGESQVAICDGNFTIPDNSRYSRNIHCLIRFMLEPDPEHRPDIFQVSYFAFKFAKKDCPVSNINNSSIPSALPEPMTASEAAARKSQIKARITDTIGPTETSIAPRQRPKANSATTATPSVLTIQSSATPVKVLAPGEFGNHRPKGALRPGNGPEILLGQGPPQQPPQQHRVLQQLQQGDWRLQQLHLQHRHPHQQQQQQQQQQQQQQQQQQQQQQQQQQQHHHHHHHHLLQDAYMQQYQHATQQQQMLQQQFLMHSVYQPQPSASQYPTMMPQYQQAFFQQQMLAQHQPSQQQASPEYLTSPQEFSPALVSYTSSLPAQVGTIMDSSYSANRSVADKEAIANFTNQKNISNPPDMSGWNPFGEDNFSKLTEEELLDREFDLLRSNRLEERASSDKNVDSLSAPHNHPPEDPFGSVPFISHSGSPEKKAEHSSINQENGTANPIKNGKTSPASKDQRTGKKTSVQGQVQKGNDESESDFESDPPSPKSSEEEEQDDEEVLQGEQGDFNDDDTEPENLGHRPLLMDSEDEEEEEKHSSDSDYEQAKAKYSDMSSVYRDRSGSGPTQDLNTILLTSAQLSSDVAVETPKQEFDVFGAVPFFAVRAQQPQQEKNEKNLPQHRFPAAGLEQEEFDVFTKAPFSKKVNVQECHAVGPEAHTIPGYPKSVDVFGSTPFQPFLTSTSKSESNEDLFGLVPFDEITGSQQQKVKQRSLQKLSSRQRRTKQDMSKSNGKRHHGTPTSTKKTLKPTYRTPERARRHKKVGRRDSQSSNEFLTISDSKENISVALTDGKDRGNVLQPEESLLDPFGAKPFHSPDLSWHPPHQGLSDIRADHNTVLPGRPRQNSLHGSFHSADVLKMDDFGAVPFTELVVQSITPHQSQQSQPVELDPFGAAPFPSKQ
Further: in the data inactive means no Kd found up to 30 µM.

| Compound | Kd (ADP/ATP translocase 2) | Kd [1] | Kd [2] | Kd [3] | Kd (Ephrin type-B receptor 2) | Kd [4] |
| --- | --- | --- | --- | --- | --- | --- |
| Cc1c(Cn2c(C)nc3c(C(=O)O)cc(N4CCOCC4)cc32)cccc1C(F)(F)F [GSK-2636771] | > 30 µM (inactive) | > 30 µM (inactive) | > 30 µM (inactive) | > 30 µM (inactive) | > 30 µM (inactive) | > 30 µM (inactive) |
| Cn1cc(-c2[nH]c3cc(NC(=O)[C@H](N)C4CCCCC4)cc4c3c2C=NNC4=O)cn1 | > 30 µM (inactive) | > 30 µM (inactive) | > 30 µM (inactive) | > 30 µM (inactive) | > 30 µM (inactive) | 0.006 µM (active) |
| NC(=O)c1ccc(N(C(N)=O)c2c(F)cccc2F)nc1-c1ccc(F)cc1F [VX-702] | > 30 µM (inactive) | > 30 µM (inactive) | > 30 µM (inactive) | > 30 µM (inactive) | > 30 µM (inactive) | > 30 µM (inactive) |
| COCCN1CCN(Cc2ccc(-c3n[nH]c4c3C(=O)c3c(NC(=O)NN5CCOCC5)cccc3-4)cc2)CC1 [RGB-286638] | > 30 µM (inactive) | > 30 µM (inactive) | > 30 µM (inactive) | > 30 µM (inactive) | > 30 µM (inactive) | 0.008 µM (active) |
| CCc1nc(C(N)=O)c(Nc2ccc(N3CCC(N4CCN(C)CC4)CC3)c(OC)c2)nc1NC1CCOCC1 [GILTERITINIB] | 0.451 µM (active) | > 30 µM (inactive) | > 30 µM (inactive) | 1.38 µM (active) | > 30 µM (inactive) | 0.046 µM (active) |
| O=C(NOC[C@H](O)CO)c1ccc(F)c(F)c1Nc1ccc(I)cc1F [MIRDAMETINIB] | > 30 µM (inactive) | > 30 µM (inactive) | > 30 µM (inactive) | > 30 µM (inactive) | > 30 µM (inactive) | > 30 µM (inactive) |
| O=C(NC[C@H](O)CO)c1ccncc1Nc1ccc(I)cc1F [PIMASERTIB] | > 30 µM (inactive) | > 30 µM (inactive) | > 30 µM (inactive) | > 30 µM (inactive) | > 30 µM (inactive) | > 30 µM (inactive) |
| O=C(Nc1ccc(OC(F)(F)F)cc1)c1sccc1NCc1ccnc2ccccc12 [OSI-930] | > 30 µM (inactive) | > 30 µM (inactive) | > 30 µM (inactive) | > 30 µM (inactive) | > 30 µM (inactive) | > 30 µM (inactive) |
| NC[C@@](O)(c1ccc(Cl)cc1)c1ccc(-c2cn[nH]c2)cc1 [AT-13148] | > 30 µM (inactive) | > 30 µM (inactive) | > 30 µM (inactive) | > 30 µM (inactive) | > 30 µM (inactive) | > 30 µM (inactive) |
| COc1cc2nccc(Oc3ccc(NC(=O)C4(C(=O)Nc5ccc(F)cc5)CC4)cc3)c2cc1OC [CABOZANTINIB] | > 30 µM (inactive) | > 30 µM (inactive) | > 30 µM (inactive) | > 30 µM (inactive) | > 30 µM (inactive) | > 30 µM (inactive) |
| C[C@@H]1COC(Nc2ccc3ncnc(Nc4ccc(OCc5nccs5)c(Cl)c4)c3c2)=N1 [VARLITINIB] | > 30 µM (inactive) | > 30 µM (inactive) | > 30 µM (inactive) | > 30 µM (inactive) | > 30 µM (inactive) | > 30 µM (inactive) |
| COc1ccc(-c2ccc3ncc4c(c3c2)n(-c2ccc(N3CCNCC3)c(C(F)(F)F)c2)c(=O)n4C)cn1 [BGT-226 FREE BASE] | > 30 µM (inactive) | > 30 µM (inactive) | > 30 µM (inactive) | > 30 µM (inactive) | > 30 µM (inactive) | > 30 µM (inactive) |
| CCN(CCCOc1ccc2c(Nc3cc(CC(=O)Nc4cccc(F)c4)n[nH]3)ncnc2c1)CCOP(=O)(O)O [BARASERTIB] | > 30 µM (inactive) | > 30 µM (inactive) | > 30 µM (inactive) | > 30 µM (inactive) | > 30 µM (inactive) | > 30 µM (inactive) |
| Cc1cc(Nc2nc(N[C@@H](C)c3ncc(F)cn3)ncc2Cl)n[nH]1 [AZD-1480] | > 30 µM (inactive) | > 30 µM (inactive) | > 30 µM (inactive) | > 30 µM (inactive) | > 30 µM (inactive) | > 30 µM (inactive) |
| CCc1cc2c(cc1N1CCC(N3CCOCC3)CC1)C(C)(C)c1[nH]c3cc(C#N)ccc3c1C2=O [ALECTINIB] | > 30 µM (inactive) | > 30 µM (inactive) | > 30 µM (inactive) | > 30 µM (inactive) | > 30 µM (inactive) | > 30 µM (inactive) |
| FC(F)(F)c1ccc(CNc2ccc(Cc3c[nH]c4ncc(Cl)cc34)cn2)cn1 [PEXIDARTINIB] | > 30 µM (inactive) | > 30 µM (inactive) | > 30 µM (inactive) | > 30 µM (inactive) | > 30 µM (inactive) | > 30 µM (inactive) |
| O=S(=O)(c1cccc2c(O)nccc12)N1CCCNCC1 [HYDROXYFASUDIL] | > 30 µM (inactive) | > 30 µM (inactive) | > 30 µM (inactive) | > 30 µM (inactive) | > 30 µM (inactive) | > 30 µM (inactive) |

From ChEMBL document CHEMBL3991601, “The target landscape of clinical kinase drugs” (Science, 2017)
